Measurements reported in BindingDB's records for doi:10.7270/Q22J698B (NMMLSC, 2010).
pEC50: −log10 of the molar value.

Biological target: Cell division control protein 42 homolog (Homo sapiens, UniProt P60953)
Experiment: activated mutant Cdc42 GTP-binding inhibitors, dose response, biochemical, multiplex bead flow cytometry, Bodipy-FL-GTP (AID 1333)

Chain of Cell division control protein 42 homolog (P60953 whole entry): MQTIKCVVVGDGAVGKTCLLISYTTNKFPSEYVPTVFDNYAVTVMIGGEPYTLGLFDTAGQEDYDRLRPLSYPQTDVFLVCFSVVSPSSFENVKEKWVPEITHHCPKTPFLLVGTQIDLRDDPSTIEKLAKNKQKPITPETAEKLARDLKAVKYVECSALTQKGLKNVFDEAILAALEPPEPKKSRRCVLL

pEC50: 7.04
Compound: CC1(C)Cc2c(sc(NC(=S)NC(=O)c3ccccc3)c2C(=O)O)CO1 [2-(benzoylcarbamothioylamino)-5,5-dimethyl-4,7-dihydrothieno[2,3-c]pyran-3-carboxylic acid]
